Assays:
[1] = threo versus erythro methylphenidate; cited from earlier work
[2] = test system: erythropoietin (EPO); test: Erythropoietin (EPO) release from HepG2 cells (ELISA); assay type: cell-based, human; details: HepG2, hypoxia (5% CO2), 24 hours; Cpd II 15 μg/ml, LY 294002 25 μM; hypoxia alone 108.39 ± 2.81
Experimental: HepG2 is a human hepatic cancer cell line, which was obtained from ATCC. HepG2 cells were grown to confluence in 25 cm^2 flasks in IMDM medium containing 10% FCS. Then, the cells were trypsinized as follows. The medium in each flask was aspirated and replaced with 5 ml of 0.025% trypsin/EDTA (Cambrex). The cells were monitored on a microscope until they no longer adhered to the flasks. Then, 5 ml of trypsin neutralizing solution (TNS) (Cambrex) were added to each flask to stop the reaction. The cell suspension was centrifuged at 1000 rpm for 10 minutes, and the supernatants were aspirated. The cells were reconstituted in fresh medium and counted. Then, 4 ml of the cell suspension in medium containing at 1.22×10^6 cells/ml were mixed with an additional 1 ml of medium. Next, 0.5 ml/well of the resulting cell suspension was added to wells in a 24-well culture plate (about 500,000 cells/well). The cells were treated as indicated in Table 5 below and incubated for 24 hours at 37° C., with or without 5% CO2. The supernatants were removed from the wells and centrifuged to remove debris. Next, the supernatants were analyzed for erythropoietin (EPO) production. EPO was measured by ELISA using a kit obtained from R & D Systems, Minneapolis, Minn. (catalog no. DE900) following the manufacturer's instructions.

[3] = test system: NFκB; test: Activated NFκB in TNFα- or VEGF-treated HIAECs (TransAM assay); assay type: cell-based; details: Homo sapiens, TNFα 10 ng/ml, Cpd II 15 μg/ml, LY 294002 10 μM, read-out: Percent Inhibition (NFκB)
Experimental: Passage 8 (human iliac artery endothelial cells (HIAECs) (obtained from ATCC; catalog no. CC-2545) were grown to confluence in 25 cm^2 flasks in EGM-2 medium. Eighteen hours prior to the experiment, the medium was replaced with EGM-2 medium containing 0.1% FCS plus heparin, GA1000 (gentamycin) and bovine pituitary extract (all from Cambrex) to place the cells in a resting state. To perform the experiment the medium was aspirated from the flasks, and the following additives were added to the flasks in fresh medium (total volume of 5 ml/flask): 15 μg/ml of the compound of formula II (Cpd II) or 10 μM LY 294002. The flasks were incubated 2 hours at 37° C., 5% CO2. After this incubation, VEGF or TNFα was added to give a final concentration 10 ng/ml, and the flasks were incubated for an additional 30 minutes. Then, the amount of NFκB was determined using a TransAM™ NFκB p65/NFκB p50 Transcription Factor Assay Kit and a Nuclear Extract Kit from Active Motif North America, Carlsbad, Calif., as described in Example 12.

[4] = test system: TCR-positive cells; test: Annexin staining of TCR-positive cells (flow cytometry, cell death); assay type: cell-based, human; details: PHA plus dexamethasone 10 μM
Experimental: After this incubation, PHA was added to give a final concentration of 5 μg/ml, and the cells were incubated for an additional 72 hours at 37° C., 5% CO2. All cultures were performed in triplicate. Cells were then removed by centrifugation at 1000 rpm for 10 minutes.
The cells were further analyzed by flow cytometry Annexin was used to determine populations of dead or dying cells. Anti-CD69 antibody was used to establish the level of cellular activation. Antibody to T-cell receptor αβ (TCR) was also used. Recombinant Annexin 5 (PE and FITC conjugates) and the antibodies were all purchase from Caltag (Burlingham, Calif.) and used following the manufacturer's recommendations.

[5] = test system: IL-8; test: IL-8 release from LPS-stimulated THP-1 monocytes (ELISA); assay type: cell-based; details: THP-1, LPS 200 ng/ml, 24 hours; Cpd II 15 μg/ml, Dex 10 μM
Experimental: (§1) THP-1 is a monocyte cell line obtained from American Type Culture Collection (ATCC) (catalog no. TIB-202). […] After 1 hour, lipopolysaccharide (LPS) (obtained from Sigma) was added to the cultures to give a final concentration of 200 ng/ml, and the cells were then incubated for an additional 4 hours or for an additional 24 hours. After the incubation, the cells were centrifuged, and the supernatants were collected. The concentrations of IL-8 and TNFα in the supernatants were determined by ELISA.
The concentrations of IL-8 in the supernatants were determined by ELISA performed as described in Example 4.

[6] = test system: TNFα; test: TNFα release from LPS-stimulated THP-1 monocytes (ELISA); assay type: cell-based; details: THP-1, LPS 200 ng/ml, 24 hours; Cpd II 15 μg/ml, Dex 10 μM
Experimental: as §1
The TNFα ELISA was performed as described in Example 2.

In the case of COC(=O)C(c1ccccc1)C1CCCCN1 (single isomer, unassigned) [threo diastereomer], the “potency relative to the erythro diastereomer” value [1] is listed as “about 80 times”.

For O=c1cc(N2CCOCC2)oc2c(-c3ccccc3)cccc12 [LY 294002, reference compound], the “Mean Units/ml EPO” value [2] was 52.99 ± 1.04 Units/ml and the inhibition at 10 µM [3] was 10%.

With C[C@@H]1C[C@H]2[C@@H]3CCC4=CC(=O)C=C[C@]4(C)[C@@]3(F)[C@@H](O)C[C@]2(C)[C@@]1(O)C(=O)CO [dexamethasone, reference compound] the “Annexin staining of TCR-positive cells” value [4] was 48%, the “Mean IL-8 Concentration” value [5] was 2300.00 ± 283.41 pg/mL and the “Mean TNFα Concentration” value [6] was 94.759 ± 8.755 pg/mL.

Reference: patent US8076485B2, “Methylphenidate derivatives and uses of them” (priority 2005, dated 2011)
